Reference: publication PMC8305194, “Structural, Mechanistic, and Functional Insights into an Arthrobacter nicotinovorans Molybdenum Hydroxylase Involved in Nicotine Degradation” (Molecules, 2021)

Columns and labels:
[1] = target: T1, Kdh holoenzyme (KdhL, KdhM, KdhS); 6-hydroxypseudooxynicotine 2-oxidoreductase; ketone dehydrogenase (Paenarthrobacter nicotinovorans, UniProt Q933N0); assay: X-ray crystal structure, […] Å; format: binding; settings: co-purified cofactor, MCD site in KdhL
T1 construct: gene kdhC; kdhLMS co-expressed from pART2-kdhLMS in A. nicotinovorans pAO1; Ni-NTA (tag not described) and Superdex 200; KdhL 87 kDa, KdhM 287 residues, KdhS 160 residues; heterotrimer, dimer of heterotrimers in crystal; with 6-hydroxypseudooxynicotine dehydrogenase complex subunit alpha; 6-hydroxypseudooxynicotine dehydrogenase complex subunit beta
T1 sequence (Q933N0 1-794): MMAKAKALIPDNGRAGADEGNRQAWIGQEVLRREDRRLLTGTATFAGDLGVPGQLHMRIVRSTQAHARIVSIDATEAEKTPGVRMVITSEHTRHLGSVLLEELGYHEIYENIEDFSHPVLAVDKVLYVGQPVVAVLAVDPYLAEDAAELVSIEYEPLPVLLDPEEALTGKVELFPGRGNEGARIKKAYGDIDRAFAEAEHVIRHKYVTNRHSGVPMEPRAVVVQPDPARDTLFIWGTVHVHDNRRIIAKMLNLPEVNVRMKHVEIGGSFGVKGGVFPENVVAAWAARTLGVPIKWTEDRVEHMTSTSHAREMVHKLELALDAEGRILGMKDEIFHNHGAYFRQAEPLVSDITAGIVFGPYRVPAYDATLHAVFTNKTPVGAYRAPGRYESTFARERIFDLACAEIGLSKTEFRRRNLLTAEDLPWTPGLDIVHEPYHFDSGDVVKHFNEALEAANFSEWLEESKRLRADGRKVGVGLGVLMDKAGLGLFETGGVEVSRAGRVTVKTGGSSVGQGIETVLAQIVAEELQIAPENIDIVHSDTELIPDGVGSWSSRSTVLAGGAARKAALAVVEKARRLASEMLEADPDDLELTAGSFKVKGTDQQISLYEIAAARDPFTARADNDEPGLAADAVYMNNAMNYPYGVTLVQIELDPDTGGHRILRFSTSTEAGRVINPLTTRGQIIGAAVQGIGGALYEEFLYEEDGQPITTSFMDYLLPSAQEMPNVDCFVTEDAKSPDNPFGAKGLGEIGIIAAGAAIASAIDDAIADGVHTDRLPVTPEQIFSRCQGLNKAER
T1 sequence (O87681 1-296 partner): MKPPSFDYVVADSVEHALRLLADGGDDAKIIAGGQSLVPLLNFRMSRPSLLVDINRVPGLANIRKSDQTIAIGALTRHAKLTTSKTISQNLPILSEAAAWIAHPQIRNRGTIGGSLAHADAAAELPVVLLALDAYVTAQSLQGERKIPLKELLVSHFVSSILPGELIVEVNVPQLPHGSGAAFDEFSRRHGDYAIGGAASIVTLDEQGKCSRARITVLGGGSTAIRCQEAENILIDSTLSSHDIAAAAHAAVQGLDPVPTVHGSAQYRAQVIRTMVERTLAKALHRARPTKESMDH
T1 sequence (O87682 2-160 partner): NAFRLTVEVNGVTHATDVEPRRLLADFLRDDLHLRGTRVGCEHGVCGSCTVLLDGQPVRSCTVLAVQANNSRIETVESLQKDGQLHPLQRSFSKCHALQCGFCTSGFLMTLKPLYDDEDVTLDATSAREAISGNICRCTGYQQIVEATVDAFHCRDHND

[2] = target: T2, Kdh holoenzyme, FAD site in KdhM (Paenarthrobacter nicotinovorans, UniProt O87681); assay: X-ray crystal structure, […] Å; format: binding; settings: co-purified cofactor
T2 construct: gene kdhA; same holoenzyme as P1; KdhM 287 residues, 32 kDa, holds FAD; with 6-hydroxypseudooxynicotine dehydrogenase complex subunit gamma; 6-hydroxypseudooxynicotine dehydrogenase complex subunit beta
T2 sequence (O87681 1-296): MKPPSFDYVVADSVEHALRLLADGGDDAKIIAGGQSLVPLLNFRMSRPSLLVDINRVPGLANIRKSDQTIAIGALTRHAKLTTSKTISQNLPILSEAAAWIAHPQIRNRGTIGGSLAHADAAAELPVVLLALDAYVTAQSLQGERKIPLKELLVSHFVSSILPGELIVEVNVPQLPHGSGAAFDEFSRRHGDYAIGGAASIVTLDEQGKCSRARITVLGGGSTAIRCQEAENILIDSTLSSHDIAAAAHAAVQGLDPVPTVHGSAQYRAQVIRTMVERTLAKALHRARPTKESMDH
T2 sequence (Q933N0 1-794 partner): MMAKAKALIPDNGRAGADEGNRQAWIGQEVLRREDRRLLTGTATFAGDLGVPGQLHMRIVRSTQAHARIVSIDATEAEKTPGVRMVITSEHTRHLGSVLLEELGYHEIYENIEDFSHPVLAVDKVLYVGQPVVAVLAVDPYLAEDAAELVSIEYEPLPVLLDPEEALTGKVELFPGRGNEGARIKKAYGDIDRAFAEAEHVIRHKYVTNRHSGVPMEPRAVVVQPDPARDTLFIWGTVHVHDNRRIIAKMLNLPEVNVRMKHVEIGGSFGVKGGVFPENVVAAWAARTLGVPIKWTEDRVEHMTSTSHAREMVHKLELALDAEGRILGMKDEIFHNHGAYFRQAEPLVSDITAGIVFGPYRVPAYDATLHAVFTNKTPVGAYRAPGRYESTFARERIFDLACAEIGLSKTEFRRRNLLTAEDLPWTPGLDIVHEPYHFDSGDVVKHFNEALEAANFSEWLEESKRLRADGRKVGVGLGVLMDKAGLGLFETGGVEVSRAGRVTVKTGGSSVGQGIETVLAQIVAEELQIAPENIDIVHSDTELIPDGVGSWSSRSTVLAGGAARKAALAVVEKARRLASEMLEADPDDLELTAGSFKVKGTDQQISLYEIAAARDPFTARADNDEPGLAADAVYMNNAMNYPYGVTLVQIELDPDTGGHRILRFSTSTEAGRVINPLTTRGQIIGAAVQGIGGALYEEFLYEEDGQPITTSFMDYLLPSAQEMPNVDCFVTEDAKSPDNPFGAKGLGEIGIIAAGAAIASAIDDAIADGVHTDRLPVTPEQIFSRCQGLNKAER
T2 sequence (O87682 2-160 partner): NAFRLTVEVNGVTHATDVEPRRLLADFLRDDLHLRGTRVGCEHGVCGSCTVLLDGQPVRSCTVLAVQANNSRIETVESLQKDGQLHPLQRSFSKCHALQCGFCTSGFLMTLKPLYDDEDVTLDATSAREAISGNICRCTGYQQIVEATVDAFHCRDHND

[3] = target: the molecule itself; assay: crystal structure; Kdh holoenzyme crystallised by hanging-drop vapor diffusion at 14 °C; 1% tryptone, 0.1 M Tris-HCl pH 8.0, 25% PEG 3350; space group P212121, two heterotrimers per asymmetric unit; 3.4 Å

How did the “X-ray crystal structure, 3.4 Å” value [1] turn out when `Nc1ccn([C@@H]2O[C@H](COP(=O)(O)OP(=O)(O)OC[C@H]3O[C@H]4Nc5nc(N)[nH]c(=O)c5N[C@H]4C(S)=C3S)[C@@H](O)[C@H]2O)c(=O)n1` [MCD] was run?
Its value is “the MCD cofactor is at the center of their intersection”.

Which “X-ray crystal structure, 3.4 Å” value [2] does the source give for `Cc1cc2nc3c(=O)[nH]c(=O)nc-3n(C[C@H](O)[C@H](O)[C@H](O)COP(=O)(O)OP(=O)(O)OC[C@H]3O[C@@H](n4cnc5c(N)ncnc54)[C@H](O)[C@@H]3O)c2cc1C` [FAD] here?
Its value is “the KdhM-bound FAD cofactor is relatively less restricted from the exterior”.

B1: Kdh holoenzyme (heterotrimer of KdhL, KdhM and KdhS) (complex, Arthrobacter nicotinovorans)
chain 1: MMAKAKALIPDNGRAGADEGNRQAWIGQEVLRREDRRLLTGTATFAGDLGVPGQLHMRIVRSTQAHARIVSIDATEAEKTPGVRMVITSEHTRHLGSVLLEELGYHEIYENIEDFSHPVLAVDKVLYVGQPVVAVLAVDPYLAEDAAELVSIEYEPLPVLLDPEEALTGKVELFPGRGNEGARIKKAYGDIDRAFAEAEHVIRHKYVTNRHSGVPMEPRAVVVQPDPARDTLFIWGTVHVHDNRRIIAKMLNLPEVNVRMKHVEIGGSFGVKGGVFPENVVAAWAARTLGVPIKWTEDRVEHMTSTSHAREMVHKLELALDAEGRILGMKDEIFHNHGAYFRQAEPLVSDITAGIVFGPYRVPAYDATLHAVFTNKTPVGAYRAPGRYESTFARERIFDLACAEIGLSKTEFRRRNLLTAEDLPWTPGLDIVHEPYHFDSGDVVKHFNEALEAANFSEWLEESKRLRADGRKVGVGLGVLMDKAGLGLFETGGVEVSRAGRVTVKTGGSSVGQGIETVLAQIVAEELQIAPENIDIVHSDTELIPDGVGSWSSRSTVLAGGAARKAALAVVEKARRLASEMLEADPDDLELTAGSFKVKGTDQQISLYEIAAARDPFTARADNDEPGLAADAVYMNNAMNYPYGVTLVQIELDPDTGGHRILRFSTSTEAGRVINPLTTRGQIIGAAVQGIGGALYEEFLYEEDGQPITTSFMDYLLPSAQEMPNVDCFVTEDAKSPDNPFGAKGLGEIGIIAAGAAIASAIDDAIADGVHTDRLPVTPEQIFSRCQGLN
chain 2: MKPPSFDYVVADSVEHALRLLADGGDDAKIIAGGQSLVPLLNFRMSRPSLLVDINRVPGLANIRKSDQTIAIGALTRHAKLTTSKTISQNLPILSEAAAWIAHPQIRNRGTIGGSLAHADAAAELPVVLLALDAYVTAQSLQGERKIPLKELLVSHFVSSILPGELIVEVNVPQLPHGSGAAFDEFSRRHGDYAIGGAASIVTLDEQGKCSRARITVLGGGSTAIRCQEAENILIDSTLSSHDIAAAAHAAVQGLDPVPTVHGSAQYRAQVIRTMVERTLAKALHRA
chain 3: MNAFRLTVEVNGVTHATDVEPRRLLADFLRDDLHLRGTRVGCEHGVCGSCTVLLDGQPVRSCTVLAVQANNSRIETVESLQKDGQLHPLQRSFSKCHALQCGFCTSGFLMTLKPLYDDEDVTLDATSAREAISGNICRCTGYQQIVEATVDAFHCRDHND
notes: KdhL, 87 kDa molybdopterin (MCD) subunit of Kdh, Arthrobacter nicotinovorans; KdhM, 32 kDa FAD subunit of Kdh, Arthrobacter nicotinovorans; contains 287 residues; KdhS, 17.6 kDa Fe2S2 subunit of Kdh, Arthrobacter nicotinovorans; has 160 residues; Heterotrimer with MCD, two Fe2S2 and FAD; two heterotrimers form the dimer seen in the crystal; also called ketone dehydrogenase; …
Which “stoichiometry N” value [3] does the source give for B1 here?
Its value is 2.
